The source of these data is ChEMBL document CHEMBL3045717, “Synthesis and pharmacological properties of some novel pyrazolidine and pyrazole derivatives” (2012).

The structures appear in SMILES notation.

For the first test, the system named is Candida albicans. The experiment in a line: Antifungal activity against Candida albicans at 50 ug/ml after 48 to 72 hr by agar diffusion cup-plate method. Type of test: functional. The following applies: read-out: DIZ. For orientation: In agar diffusion tests the substance spreads into inoculated agar from a disc or well.
`Cc1cc(C)n(-c2ccc([N+](=O)[O-])cc2[N+](=O)[O-])n1`: the zone of inhibition at 50 µg/mL was found to be 14.3 mm.

On to `O=C1CC(CCl)=NN1c1ccc([N+](=O)[O-])cc1[N+](=O)[O-]`, for which the zone of inhibition at 50 µg/mL was found to be 14.2 mm.

For `CC1=NN(c2ccc([N+](=O)[O-])cc2[N+](=O)[O-])C(=O)C1`, the zone of inhibition at 50 µg/mL is 10 mm.

In a further test the test system is Staphylococcus aureus. The experiment in a line: Antibacterial activity against Staphylococcus aureus at 200 ug/ml after 24 hr by agar diffusion cup-plate method. Type of test: functional. The conditions noted are these: read-out: DIZ.
As for `Cc1cc(C)n(-c2ccc([N+](=O)[O-])cc2[N+](=O)[O-])n1`, the zone of inhibition at 200 µg/mL is 24 mm.

`O=C1CC(CCl)=NN1c1ccc([N+](=O)[O-])cc1[N+](=O)[O-]`: the zone of inhibition at 200 µg/mL was found to be 28.1 mm.

Take `CC1=NN(c2ccc([N+](=O)[O-])cc2[N+](=O)[O-])C(=O)C1`: the zone of inhibition at 200 µg/mL turned out to be 24.1 mm.

Another test relates to Staphylococcus aureus. Kind of test: Antibacterial activity against Staphylococcus aureus at 50 ug/ml after 24 hr by agar diffusion cup-plate method. Type of test: functional. The conditions noted are these: read-out: DIZ.
On to `Cc1cc(C)n(-c2ccc([N+](=O)[O-])cc2[N+](=O)[O-])n1`, for which the zone of inhibition at 50 µg/mL was 14 mm.

Regarding `O=C1CC(CCl)=NN1c1ccc([N+](=O)[O-])cc1[N+](=O)[O-]`, the zone of inhibition at 50 µg/mL is 15 mm.

As to `CC1=NN(c2ccc([N+](=O)[O-])cc2[N+](=O)[O-])C(=O)C1`, the zone of inhibition at 50 µg/mL was determined as 14.2 mm.

A further test relates to Candida albicans. The experiment in a line: Antifungal activity against Candida albicans at 200 ug/ml after 48 to 72 hr by agar diffusion cup-plate method. The conditions noted are these: read-out: DIZ. Type of test: functional.
Take `Cc1cc(C)n(-c2ccc([N+](=O)[O-])cc2[N+](=O)[O-])n1`: the zone of inhibition at 200 µg/mL stood at 24.5 mm.

Take `O=C1CC(CCl)=NN1c1ccc([N+](=O)[O-])cc1[N+](=O)[O-]`: the zone of inhibition at 200 µg/mL came to 26.4 mm.

On to `CC1=NN(c2ccc([N+](=O)[O-])cc2[N+](=O)[O-])C(=O)C1`, for which the zone of inhibition at 200 µg/mL was 20.4 mm.

In a further test the test system is Bacillus subtilis. The experiment in a line: Antibacterial activity against Bacillus subtilis at 100 ug/ml after 24 hr by agar diffusion cup plate method. The following applies: read-out: DIZ. Type of test: functional.
As to `Cc1cc(C)n(-c2ccc([N+](=O)[O-])cc2[N+](=O)[O-])n1`, the zone of inhibition at 100 µg/mL was 18.5 mm.

For the molecule `O=C1CC(CCl)=NN1c1ccc([N+](=O)[O-])cc1[N+](=O)[O-]`, the zone of inhibition at 100 µg/mL amounted to 20.1 mm.

With `CC1=NN(c2ccc([N+](=O)[O-])cc2[N+](=O)[O-])C(=O)C1`, the zone of inhibition at 100 µg/mL worked out at 10.1 mm.

For the next test, the system named is Pseudomonas aeruginosa. The experiment in a line: Antibacterial activity against Pseudomonas aeruginosa at 50 ug/ml after 24 hr by agar diffusion cup-plate method. Type of test: functional. The conditions noted are these: read-out: DIZ.
As to `Cc1cc(C)n(-c2ccc([N+](=O)[O-])cc2[N+](=O)[O-])n1`, the zone of inhibition at 50 µg/mL came to 10.2 mm.

As for `O=C1CC(CCl)=NN1c1ccc([N+](=O)[O-])cc1[N+](=O)[O-]`, the zone of inhibition at 50 µg/mL turned out to be 14 mm.

Take `CC1=NN(c2ccc([N+](=O)[O-])cc2[N+](=O)[O-])C(=O)C1`: the zone of inhibition at 50 µg/mL was 12.2 mm.

The next test concerns Candida albicans. Kind of test: Antifungal activity against Candida albicans at 100 ug/ml after 48 to 72 hr by agar diffusion cup-plate method. Type of test: functional. The following applies: read-out: DIZ.
For the molecule `Cc1cc(C)n(-c2ccc([N+](=O)[O-])cc2[N+](=O)[O-])n1`, the zone of inhibition at 100 µg/mL amounted to 20 mm.

For `O=C1CC(CCl)=NN1c1ccc([N+](=O)[O-])cc1[N+](=O)[O-]`, the zone of inhibition at 100 µg/mL amounted to 23 mm.

As to `CC1=NN(c2ccc([N+](=O)[O-])cc2[N+](=O)[O-])C(=O)C1`, the zone of inhibition at 100 µg/mL was 14 mm.

The next test has as its system Escherichia coli. Kind of test: Antibacterial activity against Escherichia coli at 200 ug/ml after 24 hr by agar diffusion cup-plate method. Type of test: functional. The conditions noted are these: read-out: DIZ.
As to `Cc1cc(C)n(-c2ccc([N+](=O)[O-])cc2[N+](=O)[O-])n1`, the zone of inhibition at 200 µg/mL came out at 28.5 mm.

Take `O=C1CC(CCl)=NN1c1ccc([N+](=O)[O-])cc1[N+](=O)[O-]`: the zone of inhibition at 200 µg/mL was 30.4 mm.

Turning to `CC1=NN(c2ccc([N+](=O)[O-])cc2[N+](=O)[O-])C(=O)C1`, the zone of inhibition at 200 µg/mL came to 20.4 mm.

A further test deals with Pseudomonas aeruginosa. Kind of test: Antibacterial activity against Pseudomonas aeruginosa at 100 ug/ml after 24 hr by agar diffusion cup-plate method. The conditions noted are these: read-out: DIZ. Type of test: functional.
Take `Cc1cc(C)n(-c2ccc([N+](=O)[O-])cc2[N+](=O)[O-])n1`: the zone of inhibition at 100 µg/mL came out at 18.6 mm.

With `O=C1CC(CCl)=NN1c1ccc([N+](=O)[O-])cc1[N+](=O)[O-]`, the zone of inhibition at 100 µg/mL worked out at 22.1 mm.

As for `CC1=NN(c2ccc([N+](=O)[O-])cc2[N+](=O)[O-])C(=O)C1`, the zone of inhibition at 100 µg/mL amounted to 16 mm.

Another test deals with Escherichia coli. The experiment in a line: Antibacterial activity against Escherichia coli at 50 ug/ml after 24 hr by agar diffusion cup-plate method. Type of test: functional. The following applies: read-out: DIZ.
As for `Cc1cc(C)n(-c2ccc([N+](=O)[O-])cc2[N+](=O)[O-])n1`, the zone of inhibition at 50 µg/mL was determined as 14.3 mm.

Regarding `O=C1CC(CCl)=NN1c1ccc([N+](=O)[O-])cc1[N+](=O)[O-]`, the zone of inhibition at 50 µg/mL worked out at 14.2 mm.

Take `CC1=NN(c2ccc([N+](=O)[O-])cc2[N+](=O)[O-])C(=O)C1`: the zone of inhibition at 50 µg/mL amounted to 12 mm.

A further test concerns Aspergillus niger. Kind of test: Antifungal activity against Aspergillus niger at 50 ug/ml after 48 to 72 hr by agar diffusion cup-plate method. Type of test: functional. The following applies: read-out: DIZ.
With `Cc1cc(C)n(-c2ccc([N+](=O)[O-])cc2[N+](=O)[O-])n1`, the zone of inhibition at 50 µg/mL is 10.2 mm.

Regarding `O=C1CC(CCl)=NN1c1ccc([N+](=O)[O-])cc1[N+](=O)[O-]`, the zone of inhibition at 50 µg/mL stood at 14 mm.

In the case of `CC1=NN(c2ccc([N+](=O)[O-])cc2[N+](=O)[O-])C(=O)C1`, the zone of inhibition at 50 µg/mL was 12.2 mm.

The subject of another test is Aspergillus niger. Kind of test: Antifungal activity against Aspergillus niger at 100 ug/ml after 48 to 72 hr by agar diffusion cup-plate method. Type of test: functional. The following applies: read-out: DIZ.
As for `Cc1cc(C)n(-c2ccc([N+](=O)[O-])cc2[N+](=O)[O-])n1`, the zone of inhibition at 100 µg/mL stood at 18.6 mm.

For `O=C1CC(CCl)=NN1c1ccc([N+](=O)[O-])cc1[N+](=O)[O-]`, the zone of inhibition at 100 µg/mL is 22.1 mm.

In the case of `CC1=NN(c2ccc([N+](=O)[O-])cc2[N+](=O)[O-])C(=O)C1`, the zone of inhibition at 100 µg/mL came out at 14 mm.

In a further test the test system is Pseudomonas aeruginosa. Kind of test: Antibacterial activity against Pseudomonas aeruginosa at 200 ug/ml after 24 hr by agar diffusion cup-plate method. Type of test: functional. The conditions noted are these: read-out: DIZ.
Take `Cc1cc(C)n(-c2ccc([N+](=O)[O-])cc2[N+](=O)[O-])n1`: the zone of inhibition at 200 µg/mL came out at 25 mm.

With `O=C1CC(CCl)=NN1c1ccc([N+](=O)[O-])cc1[N+](=O)[O-]`, the zone of inhibition at 200 µg/mL was 28.6 mm.

On to `CC1=NN(c2ccc([N+](=O)[O-])cc2[N+](=O)[O-])C(=O)C1`, for which the zone of inhibition at 200 µg/mL was found to be 22 mm.

The next test relates to Bacillus subtilis. Kind of test: Antibacterial activity against Bacillus subtilis at 50 ug/ml after 24 hr by agar diffusion cup plate method. Type of test: functional. The following applies: read-out: DIZ.
For `Cc1cc(C)n(-c2ccc([N+](=O)[O-])cc2[N+](=O)[O-])n1`, the zone of inhibition at 50 µg/mL worked out at 10.4 mm.

For `O=C1CC(CCl)=NN1c1ccc([N+](=O)[O-])cc1[N+](=O)[O-]`, the zone of inhibition at 50 µg/mL was 12.2 mm.

Take `CC1=NN(c2ccc([N+](=O)[O-])cc2[N+](=O)[O-])C(=O)C1`: the zone of inhibition at 50 µg/mL amounted to 10.2 mm.

In a further test the test system is Aspergillus niger. The experiment in a line: Antifungal activity against Aspergillus niger at 200 ug/ml after 48 to 72 hr by agar diffusion cup-plate method. Type of test: functional. The conditions noted are these: read-out: DIZ.
Turning to `Cc1cc(C)n(-c2ccc([N+](=O)[O-])cc2[N+](=O)[O-])n1`, the zone of inhibition at 200 µg/mL is 25 mm.

Turning to `O=C1CC(CCl)=NN1c1ccc([N+](=O)[O-])cc1[N+](=O)[O-]`, the zone of inhibition at 200 µg/mL was found to be 26.6 mm.

Regarding `CC1=NN(c2ccc([N+](=O)[O-])cc2[N+](=O)[O-])C(=O)C1`, the zone of inhibition at 200 µg/mL was found to be 18 mm.

A further test has as its system Bacillus subtilis. The experiment in a line: Antibacterial activity against Bacillus subtilis at 200 ug/ml after 24 hr by agar diffusion cup plate method. Type of test: functional. The following applies: read-out: DIZ.
On to `Cc1cc(C)n(-c2ccc([N+](=O)[O-])cc2[N+](=O)[O-])n1`, for which the zone of inhibition at 200 µg/mL turned out to be 22.9 mm.

Regarding `O=C1CC(CCl)=NN1c1ccc([N+](=O)[O-])cc1[N+](=O)[O-]`, the zone of inhibition at 200 µg/mL was found to be 28 mm.

With `CC1=NN(c2ccc([N+](=O)[O-])cc2[N+](=O)[O-])C(=O)C1`, the zone of inhibition at 200 µg/mL was 12 mm.

A further test has as its system Staphylococcus aureus. The experiment in a line: Antibacterial activity against Staphylococcus aureus at 100 ug/ml after 24 hr by agar diffusion cup-plate method. Type of test: functional. The following applies: read-out: DIZ.
Regarding `Cc1cc(C)n(-c2ccc([N+](=O)[O-])cc2[N+](=O)[O-])n1`, the zone of inhibition at 100 µg/mL was 23 mm.

Turning to `O=C1CC(CCl)=NN1c1ccc([N+](=O)[O-])cc1[N+](=O)[O-]`, the zone of inhibition at 100 µg/mL worked out at 20 mm.

Take `CC1=NN(c2ccc([N+](=O)[O-])cc2[N+](=O)[O-])C(=O)C1`: the zone of inhibition at 100 µg/mL amounted to 18 mm.

A further test concerns Escherichia coli. Kind of test: Antibacterial activity against Escherichia coli at 100 ug/ml after 24 hr by agar diffusion cup-plate method. Type of test: functional. The following applies: read-out: DIZ.
For `Cc1cc(C)n(-c2ccc([N+](=O)[O-])cc2[N+](=O)[O-])n1`, the zone of inhibition at 100 µg/mL amounted to 23 mm.

Consider `O=C1CC(CCl)=NN1c1ccc([N+](=O)[O-])cc1[N+](=O)[O-]`, for which the zone of inhibition at 100 µg/mL was 23 mm.

Regarding `CC1=NN(c2ccc([N+](=O)[O-])cc2[N+](=O)[O-])C(=O)C1`, the zone of inhibition at 100 µg/mL stood at 16 mm.
